From patent publication US20060063784A1, “Method of using substituted pyrazolo [1,5-a] pyrimidines” (priority 2004, published 2006)
Like-named read-outs stand apart in the source and are kept apart here.

Key:
[1] = system: 80S14 (p21-deficient) cells; test: Cytotoxicity assay using isogenic cell lines: IC50 in 80S14 (p21-deficient) cells, SRB; type: cell-based, human; conditions: Homo sapiens
Outline: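 IC50 is the concentration halving proliferation relative to untreated controls, read from SRB absorbance (560 nm) after TCA fixation. Test agent dilutions (5 pM–50 μM or 170 pg/ml–10 μg/ml) were left on p21-deficient 80S14 cells (12,000/well, pre-incubated overnight) for 5 days at 37 °C.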

LoVo Colon cell line = test: Cytotoxicity assay using LoVo colon cell line, SRB; type: cell-based; conditions: Homo sapiens, 96 h, read-out: Inhibition of LoVo
Outline: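 Growth inhibition read by sulforhodamine B after 4-day compound exposure at 37 °C. Colon LoVo cells plated at 4000 per well in RPMI/10% FBS a day earlier; doses ranged 5 pM-20 μM or 170 pg/ml-10 μg/ml. IC50 is the concentration halving proliferation versus untreated wells.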

[2] = 120 h, 80S14 (p21-deficient) cells, 5 days, SRB, class symbols, read-out: IC50 for 80S14
[3] = Cellular activity in LoVo cell, 4 days incubation, SRB
[4] = 120 h, 80S14 p21-deficient cells, 5 days incubation, SRB, read-out: IC50 for 80SI4
[5] = LoVo colon cells, 4 days incubation, SRB

Compound	IC50 [1, 2]	IC50 (LoVo Colon cell line; [3])	further results
N#CN=C(Nc1cccc(-c2ccnc3c(C(=O)c4cccs4)cnn23)c1)Oc1ccccc1 [Example 386, Phenyl N′-cyano-N-{3-[3-(thien-2-ylcarbonyl)pyrazolo[1,5-a]pyrimidin-7-yl]phenyl}imidocarbamate]	1 to 10 µM	1 to 20 µM	
CCCCOC(=O)Nc1cccc(-c2cc(C)nc3c(C(=O)c4cccs4)cnn23)c1 [Example 195, butyl 3-[5-methyl-3-(thien-2-ylcarbonyl)pyrazolo[1,5-a]pyrimidin-7-yl]phenylcarbamate]			IC50 [1, 4]: < 1 µM; IC50 (LoVo Colon cell line; [5]): < 0.1 µM
O=C(Nc1cc(-c2ccnc3c(C(=O)c4cccs4)cnn23)ccc1F)c1c(F)cccc1F [Example 374, 2,6-Difluoro-N-{2-fluoro-5-[3-(thien-2-ylcarbonyl)pyrazolo[1,5-a]pyrimidin-7-yl]phenyl}benzamide]	< 1 µM	< 0.1 µM	
CCCCCCCCCC(C)CNc1cccc(-c2ccnc3c(C(=O)c4cccs4)cnn23)c1 (stereo not shown) [Example 447, (7-{3-[(2-Methylundecyl)amino]phenyl}pyrazolo[1,5-a]pyrimidin-3-yl)(thien-2-yl)methanone]	10 to 50 µM	1 to 20 µM	
CC(C)(C)COC(=O)Nc1cccc(-c2ccnc3c(C(=O)c4cccs4)cnn23)c1 [Example 17, neopentyl 3-[3-(thien-2-ylcarbonyl)pyrazolo[1,5-a]pyrimidin-7-yl]phenylcarbamate]			IC50 [1, 4]: < 1 µM; IC50 (LoVo Colon cell line; [5]): < 0.1 µM
CN(C)C(=O)Nc1cccc(-c2ccnc3c(C(=O)c4cccs4)cnn23)c1 [Example 46, N,N-dimethyl-N′-{3-[3-(thien-2-ylcarbonyl)pyrazolo[1,5-a]pyrimidin-7-yl]phenyl}urea]			IC50 [1, 4]: 1 to 10 µM; IC50 (LoVo Colon cell line; [5]): 1 to 2 µM
Cc1ccc(-c2ccnc3c(C(=O)c4cccs4)cnn23)cc1NC(=O)NC(C)C [Example 311, N-Isopropyl-N′-{2-methyl-5-[3-(2-thienylcarbonyl)pyrazolo[1,5-a]pyrimidin-7-yl]phenyl}urea]	< 1 µM	< 0.1 µM	
CC(C)CC(=O)Nc1cccc(-c2ccnc3c(-c4cccc(N(C)C)c4)cnn23)c1 [Example 465, N-(3-{3-[3-(Dimethylamino)phenyl]pyrazolo[1,5-a]pyrimidin-7-yl}phenyl)-3-methylbutanamide]	< 1 µM	< 0.1 µM	
CCN(CC)c1cccc(-c2ccnc3c(C(=O)c4cccs4)cnn23)c1 [Example 394, {7-[3-(Diethylamino)phenyl]pyrazolo[1,5-a]pyrimidin-3-yl}(thien-2-yl)methanone]	1 to 10 µM	0.1 to 1 µM	
Nc1ccc(-c2ccnc3c(C(=O)c4cccs4)cnn23)s1 [Example 345, [7-(5-Aminothien-2-yl)pyrazolo[1,5-a]pyrimidin-3-yl](thien-2-yl)methanone]	10 to 50 µM	1 to 20 µM	
CC#CC(=O)Nc1cccc(-c2ccnc3c(C(=O)c4cccs4)cnn23)c1 [Example 274, N-{3-[3-(2-Thienylcarbonyl)pyrazolo[1,5-a]pyrimidin-7-yl]phenyl}-2-butynamide]	< 1 µM	< 0.1 µM	
CC(C)NC(=O)Nc1cc(-c2ccnc3c(C(=O)c4cccs4)cnn23)ccc1F [Example 382, N-{2-Fluoro-5-[3-(thien-2-ylcarbonyl)pyrazolo[1,5-a]pyrimidin-7-yl]phenyl}-N′-isopropylurea]	< 1 µM	< 0.1 µM	
CCN(CC)Cc1ccc(-c2cccc(-c3ccnc4c(C(=O)c5cccs5)cnn34)c2)cc1 [Example 462, (7-{4′-[(Diethylamino)methyl]-1,1′-biphenyl-3-yl}pyrazolo[1,5-a]pyrimidin-3-yl)(thien-2-yl)methanone]	1 to 10 µM	0.1 to 1 µM	
CC(C)OC(=O)Nc1cccc(-c2ccnc3c(C(=O)c4ccsc4)cnn23)c1 [Example 293, Isopropyl 3-[3-(3-thienylcarbonyl)pyrazolo[1,5-a]pyrimidin-7-yl]phenylcarbamate]			IC50 ([1]; 80S14, 120 h, read-out: IC50 for 80S14 (uM)): < 1 µM; IC50 (LoVo Colon cell line; LoVo): < 0.1 µM
CSCCOC(=O)Nc1cccc(-c2ccnc3c(C(=O)c4cccs4)cnn23)c1 [Example 178, 2-(methylthio)ethyl 3-[3-(thien-2-ylcarbonyl)pyrazolo[1,5-a]pyrimidin-7-yl]phenylcarbamate]			IC50 [1, 4]: < 1 µM; IC50 (LoVo Colon cell line; [5]): < 0.1 µM
O=C(c1cccs1)c1cnn2c(-c3cccc(NC(=O)C4CCCCC4)c3)ccnc12 [Example 282, N-{3-[3-(2-Thienylcarbonyl)pyrazolo[1,5-a]pyrimidin-7-yl]phenyl}cyclohexanecarboxamide]	< 1 µM	0.1 to 1 µM	

Compound	IC50 [1, 2]	IC50 (LoVo Colon cell line; [3])	further results
Cc1cc(C)cc(-c2cnn3c(-c4cccc(-c5nnn(Cc6cccnc6)n5)c4)ccnc23)c1 [Example 494, 3-(3,5-Dimethylphenyl)-7-{3-[2-(pyridin-3-ylmethyl)-2H-tetrazol-5-yl]phenyl}pyrazolo[1,5-a]pyrimidine]	1 to 10 µM	0.1 to 1 µM	
Cc1cc(-c2cccc(NC(=O)OCCCl)c2)n2ncc(C(=O)c3cccs3)c2n1 [Example 198, 2-chloroethyl 3-[5-methyl-3-(thien-2-ylcarbonyl)pyrazolo[1,5-a]pyrimidin-7-yl]phenylcarbamate]			IC50 [1, 4]: < 1 µM; IC50 (LoVo Colon cell line; [5]): < 0.1 µM
O=C(CCc1cccnc1)Nc1cccc(-c2ccnc3c(C(=O)c4cccs4)cnn23)c1 [Example 448, 3-Pyridin-3-yl-N-{3-[3-(thien-2-ylcarbonyl)pyrazolo[1,5-a]pyrimidin-7-yl]phenyl}propanamide]	10 to 50 µM	0.1 to 1 µM	
O=C(CC1CCCC1)Nc1cccc(-c2ccnc3c(C(=O)c4ccco4)cnn23)c1 [Example 303, 2-Cyclopentyl-N-{3-[3-(2-furoyl)pyrazolo[1,5-a]pyrimidin-7-yl]phenyl}acetamide]	< 1 µM	< 0.1 µM	
O=C(c1cccs1)c1cnn2c(-c3cccc(-c4ccn(CC5CCC5)n4)c3)ccnc12 [Example 515, (7-{3-[1-(Cyclobutylmethyl)-1H-pyrazol-3-yl]phenyl}pyrazolo[1,5-a]pyrimidin-3-yl)(thien-2-yl)methanone]	< 1 µM	< 0.1 µM	
CN(C)c1ccc(-c2cccc(-c3ccnc4c(C(=O)c5cccs5)cnn34)c2)cc1 [Example 450, {7-[4′-(Dimethylamino)-1,1′-biphenyl-3-yl]pyrazolo[1,5-a]pyrimidin-3-yl}(thien-2-yl)methanone]	< 1 µM	< 0.1 µM	
O=C(Nc1cccc(-c2ccnc3c(C(=O)c4cccs4)cnn23)c1)OC1CCOCC1 [Example 176, tetrahydro-2H-pyran-4-yl 3-[3-(thien-2-ylcarbonyl)pyrazolo[1,5-a]pyrimidin-7-yl]phenylcarbamate]			IC50 [1, 4]: < 1 µM; IC50 (LoVo Colon cell line; [5]): < 0.1 µM
O=C(c1cccs1)c1cnn2c(-c3cccc(NCC4CC=CCC4)c3)ccnc12 (stereo not shown) [Example 436, (7-{3-[(cyclohex-3-en-1-ylmethyl)amino]phenyl}pyrazolo[1,5-a]pyrimidin-3-yl)-(thien-2-yl)-methanone]	< 1 µM	< 0.1 µM	
O=C(CC1CCNCC1)Nc1cccc(-c2ccnc3c(C(=O)c4cccs4)cnn23)c1 [Example 393, 2-Piperidin-4-yl-N-{3-[3-(thien-2-ylcarbonyl)pyrazolo[1,5-a]pyrimidin-7-yl]phenyl}acetamide]	1 to 10 µM	0.1 to 1 µM	
CCOC(=O)Nc1cccc(-c2ccnc3c(C(=O)c4cccs4)cnn23)c1 [Example 25, ethyl 3-[3-(thien-2-ylcarbonyl)pyrazolo[1,5-a]pyrimidin-7-yl]phenylcarbamate]			IC50 ([1]; 80S14, 120 h, read-out: IC50 for 80SI4 (uM)): < 1 µM; IC50 (LoVo Colon cell line; LoVo): < 0.1 µM
CC(C)(C)CNC(=O)Nc1cccc(-c2ccnc3c(C(=O)c4cccs4)cnn23)c1 [Example 164, N-neopentyl-N′-{3-[3-(thien-2-ylcarbonyl)pyrazolo[1,5-a]pyrimidin-7-yl]phenyl}urea]			IC50 [1, 4]: < 1 µM; IC50 (LoVo Colon cell line; [5]): < 0.1 µM
O=C(c1cccs1)c1cnn2c(-c3cccc(-c4nnn(CC5CCC5)n4)c3)ccnc12 [Example 505, (7-{3-[2-(Cyclobutylmethyl)-2H-tetraazol-5-yl]phenyl}pyrazolo[1,5-a]pyrimidin-3-yl)(thien-2-yl)methanone]	< 1 µM	< 0.1 µM	
O=C(c1cccs1)c1cnn2c(-c3cccc(NC(=O)N4CCCCC4)c3)ccnc12 [Example 155, N-{3-[3-(thien-2-ylcarbonyl)pyrazolo[1,5-a]pyrimidin-7-yl]phenyl}piperidine-1-carboxamide]			IC50 [1, 4]: < 1 µM; IC50 (LoVo Colon cell line; [5]): < 0.1 µM
O=C(c1cccs1)c1cnn2c(-c3cccc(NCc4ccoc4)c3)ccnc12 [Example 369, (7-{3-[(3-Furylmethyl)amino]phenyl}pyrazolo[1,5-a]pyrimidin-3-yl)(thien-2-yl)methanone]	1 to 10 µM	0.1 to 1 µM	
O=C(c1cccs1)c1cnn2c(-c3cccc(NCc4ccc(Cl)cc4)c3)ccnc12 [Example 366, (7-{3-[(4-Chlorobenzyl)amino]phenyl}pyrazolo[1,5-a]pyrimidin-3-yl)(thien-2-yl)methanone]	10 to 50 µM	1 to 20 µM	
O=C(c1cccs1)c1cnn2c(-c3cccc(NCCc4ccccc4)c3)ccnc12 [Example 362, (7-{3-[(2-Phenylethyl)amino]phenyl}pyrazolo[1,5-a]pyrimidin-3-yl)(thien-2-yl)methanone]	10 to 50 µM	1 to 20 µM	
